Measured values as given in PubChem BioAssay AID1259407 (Chemical Carcinogenesis Research Information System (CCRIS), 2018).
Calls of active or inactive are those of the source. No rule for the calls is given here.

Test system: CCRIS mutagenicity, Ames/micronucleus/aberration tests
Test: CCRIS mutagenicity studies
[1] = Test System: AMES SALMONELLA TYPHIMURIUM, Strain/Indicator: TA98, Metabolic Activation: HAMSTER, LIVER, S-9, AROCLOR 1254, Method: STANDARD PLATE
[2] = Test System: AMES SALMONELLA TYPHIMURIUM, Strain/Indicator: TA98, Metabolic Activation: NONE, Method: STANDARD PLATE
[3] = Test System: AMES SALMONELLA TYPHIMURIUM, Strain/Indicator: TA98, Metabolic Activation: RAT, LIVER, S-9, AROCLOR 1254, Method: STANDARD PLATE
[4] = Test System: AMES SALMONELLA TYPHIMURIUM, Strain/Indicator: TA100, Metabolic Activation: HAMSTER, LIVER, S-9, AROCLOR 1254, Method: STANDARD PLATE
[5] = Test System: AMES SALMONELLA TYPHIMURIUM, Strain/Indicator: TA100, Metabolic Activation: NONE, Method: STANDARD PLATE
[6] = Test System: AMES SALMONELLA TYPHIMURIUM, Strain/Indicator: TA100, Metabolic Activation: RAT, LIVER, S-9, AROCLOR 1254, Method: STANDARD PLATE
[7] = Test System: AMES SALMONELLA TYPHIMURIUM, Strain/Indicator: TA1535, Metabolic Activation: HAMSTER, LIVER, S-9, AROCLOR 1254, Method: STANDARD PLATE
[8] = Test System: AMES SALMONELLA TYPHIMURIUM, Strain/Indicator: TA1535, Metabolic Activation: NONE, Method: STANDARD PLATE
[9] = Test System: AMES SALMONELLA TYPHIMURIUM, Strain/Indicator: TA1535, Metabolic Activation: RAT, LIVER, S-9, AROCLOR 1254, Method: STANDARD PLATE
[10] = Test System: AMES SALMONELLA TYPHIMURIUM, Strain/Indicator: TA1537, Metabolic Activation: HAMSTER, LIVER, S-9, AROCLOR 1254, Method: STANDARD PLATE
[11] = Test System: AMES SALMONELLA TYPHIMURIUM, Strain/Indicator: TA1537, Metabolic Activation: NONE, Method: STANDARD PLATE
[12] = Test System: AMES SALMONELLA TYPHIMURIUM, Strain/Indicator: TA1537, Metabolic Activation: RAT, LIVER, S-9, AROCLOR 1254, Method: STANDARD PLATE
[13] = Test System: MOUSE LYMPHOMA, Strain/Indicator: L5178Y (TK+/TK-), Metabolic Activation: NONE, Method: SUSPENSION/PLATE
[14] = Test System: MOUSE LYMPHOMA, Strain/Indicator: L5178Y (TK+/TK-), Metabolic Activation: RAT, LIVER, S-9, AROCLOR 1254, Method: SUSPENSION/PLATE
[15] = Test System: AMES SALMONELLA TYPHIMURIUM, Strain/Indicator: TA1535, Metabolic Activation: NONE, Method: PREINCUBATION

CCCCCON=O
mutagenic call [1]: inactive; negative | mutagenic call [2]: inactive; negative | mutagenic call [3]: inactive; negative | mutagenic call [4]: active; positive | mutagenic call [5]: active; positive | mutagenic call [6]: inactive; negative | mutagenic call [7]: active; positive | mutagenic call [8]: active; positive | mutagenic call [9]: active; positive | mutagenic call [10]: inactive; negative | mutagenic call [11]: inactive; negative | mutagenic call [12]: inactive; negative | mutagenic call [13]: inactive; negative. reevaluation of results: inconclusive/negative | mutagenic call [14]: inactive; negative. reevaluation of results: negative

O=C(CBr)c1oc([N+](=O)[O-])c(-c2ccccc2)c1-c1ccccc1
mutagenic call (Test System: AMES SALMONELLA TYPHIMURIUM, Strain/Indicator: TA98(NR), Metabolic Activation: NONE, Method: STANDARD PLATE): active; positive | mutagenic call [2]: active; positive | mutagenic call (Test System: AMES SALMONELLA TYPHIMURIUM, Strain/Indicator: TA100(NR), Metabolic Activation: NONE, Method: STANDARD PLATE): active; positive | mutagenic call [5]: active; positive

NCCCNCCCCN(CCCN)/[N+]([O-])=N/O
mutagenic call [15]: active; positive | mutagenic call [8]: active; positive | mutagenic call (Test System: CHINESE HAMSTER OVARY, Strain/Indicator: CHO-K1-BH4 (HGPRT)/6-THIOGUANINE, Metabolic Activation: NONE): active; positive | mutagenic call (Test System: E. COLI, Strain/Indicator: WP2 UVRA (PKM101), Metabolic Activation: NONE, Method: STANDARD PLATE): active; positive | mutagenic call (Test System: E. COLI, Strain/Indicator: WP2 UVRA/OXYR (PKM101), Metabolic Activation: NONE, Method: STANDARD PLATE): active; positive | mutagenic call (Test System: E. COLI, Strain/Indicator: WP2 UVRA/UMUDC, Metabolic Activation: NONE, Method: STANDARD PLATE): active; positive | mutagenic call (Test System: E. COLI, Strain/Indicator: WP2 UVRA, Metabolic Activation: NONE, Method: STANDARD PLATE): active; positive | mutagenic call [13]: active; positive

O=C1CCCCCCCCCCCCCCO1
mutagenic call (Test System: AMES SALMONELLA TYPHIMURIUM, Strain/Indicator: TA98, Metabolic Activation: NONE, Method: PREINCUBATION): inactive; negative | mutagenic call (Test System: AMES SALMONELLA TYPHIMURIUM, Strain/Indicator: TA98, Metabolic Activation: RAT LIVER S-9, PHENOBARBITAL AND BETA-NAPHTHOFLAVONE, Method: PREINCUBATION): inactive; negative | mutagenic call (Test System: AMES SALMONELLA TYPHIMURIUM, Strain/Indicator: TA100, Metabolic Activation: NONE, Method: PREINCUBATION): inactive; negative | mutagenic call (Test System: AMES SALMONELLA TYPHIMURIUM, Strain/Indicator: TA100, Metabolic Activation: RAT LIVER S-9, PHENOBARBITAL AND BETA-NAPHTHOFLAVONE, Method: PREINCUBATION): inactive; negative | mutagenic call (Test System: AMES SALMONELLA TYPHIMURIUM, Strain/Indicator: TA102, Metabolic Activation: NONE, Method: PREINCUBATION): inactive; negative | mutagenic call (Test System: AMES SALMONELLA TYPHIMURIUM, Strain/Indicator: TA102, Metabolic Activation: RAT LIVER S-9, PHENOBARBITAL AND BETA-NAPHTHOFLAVONE, Method: PREINCUBATION): inactive; negative | mutagenic call (Test System: AMES SALMONELLA TYPHIMURIUM, Strain/Indicator: TA104, Metabolic Activation: NONE, Method: PREINCUBATION): inactive; negative | mutagenic call (Test System: AMES SALMONELLA TYPHIMURIUM, Strain/Indicator: TA104, Metabolic Activation: RAT LIVER S-9, PHENOBARBITAL AND BETA-NAPHTHOFLAVONE, Method: PREINCUBATION): inactive; negative | mutagenic call [15]: inactive; negative | mutagenic call (Test System: AMES SALMONELLA TYPHIMURIUM, Strain/Indicator: TA1535, Metabolic Activation: RAT LIVER S-9, PHENOBARBITAL AND BETA-NAPHTHOFLAVONE, Method: PREINCUBATION): inactive; negative | mutagenic call (Test System: AMES SALMONELLA TYPHIMURIUM, Strain/Indicator: TA1537, Metabolic Activation: NONE, Method: PREINCUBATION): inactive; negative | mutagenic call (Test System: AMES SALMONELLA TYPHIMURIUM, Strain/Indicator: TA1537, Metabolic Activation: RAT LIVER S-9, PHENOBARBITAL AND BETA-NAPHTHOFLAVONE, Method: PREINCUBATION): inactive; negative | mutagenic call (Test System: E.COLI, Strain/Indicator: WP2UVRA/PKM101, Metabolic Activation: NONE, Method: PREINCUBATION): inactive; negative | mutagenic call (Test System: E.COLI, Strain/Indicator: WP2UVRA/PKM101, Metabolic Activation: RAT LIVER S-9, PHENOBARBITAL AND BETA-NAPHTHOFLAVONE, Method: PREINCUBATION): inactive; negative | mutagenic call (Test System: E.COLI, Strain/Indicator: WP2UVRA, Metabolic Activation: NONE, Method: PREINCUBATION): inactive; negative | mutagenic call (Test System: E.COLI, Strain/Indicator: WP2UVRA, Metabolic Activation: RAT LIVER S-9, PHENOBARBITAL AND BETA-NAPHTHOFLAVONE, Method: PREINCUBATION): inactive; negative

O=C(O)C1OC1C(=O)O (stereo not given)
mutagenic call [5]: inactive; negative | mutagenic call [6]: inactive; negative | mutagenic call [8]: inactive; negative | mutagenic call [9]: inactive; negative | mutagenic call (Test System: UDS RAT HEPATOCYTES, Strain/Indicator: THY INCORP, Metabolic Activation: NONE): inactive; negative

C/C=C1/C[C@@H](C)[C@@](C)(O)C(=O)OC/C2=C/CN(C)CC[C@@H](OC1=O)C2=O
mutagenic call (Test System: AMES SALMONELLA TYPHIMURIUM, Strain/Indicator: TA100, Metabolic Activation: HAMSTER, LIVER, S-9, PCB, Method: PREINCUBATION): active; positive | mutagenic call (Test System: AMES SALMONELLA TYPHIMURIUM, Strain/Indicator: TA100, Metabolic Activation: RAT, LIVER, S-9, PCB, Method: PREINCUBATION): active; positive | mutagenic call (Test System: UDS HAMSTER HEPATOCYTES, Strain/Indicator: THY INCORP, Metabolic Activation: NONE, Method: AUTORADIOGRAPHY): active; positive | mutagenic call (Test System: UDS MOUSE HEPATOCYTES, Strain/Indicator: THY INCORP, Metabolic Activation: NONE, Method: AUTORADIOGRAPHY): active; positive | mutagenic call (Test System: UDS RAT HEPATOCYTES, Strain/Indicator: THY INCORP, Metabolic Activation: NONE, Method: AUTORADIOGRAPHY): active; positive

O=C(O)CCc1ccccc1
mutagenic call [1]: inactive; negative | mutagenic call [2]: inactive; negative | mutagenic call [3]: inactive; negative | mutagenic call [4]: inactive; negative | mutagenic call [5]: inactive; negative | mutagenic call [6]: inactive; negative | mutagenic call [7]: inactive; negative | mutagenic call [8]: inactive; negative | mutagenic call [9]: inactive; negative | mutagenic call [10]: inactive; negative | mutagenic call [11]: inactive; negative | mutagenic call [12]: inactive; negative | mutagenic call (Test System: AMES SALMONELLA TYPHIMURIUM, Strain/Indicator: TA1538, Metabolic Activation: HAMSTER, LIVER, S-9, AROCLOR 1254, Method: STANDARD PLATE): inactive; negative | mutagenic call (Test System: AMES SALMONELLA TYPHIMURIUM, Strain/Indicator: TA1538, Metabolic Activation: NONE, Method: STANDARD PLATE): inactive; negative | mutagenic call (Test System: AMES SALMONELLA TYPHIMURIUM, Strain/Indicator: TA1538, Metabolic Activation: RAT, LIVER, S-9, AROCLOR 1254, Method: STANDARD PLATE): inactive; negative | mutagenic call [13]: inactive; negative. reevaluation of results: negative | mutagenic call [14]: inactive; negative. reevaluation of results: negative

N[C@@H](CS)C(=O)NCC(=O)O
mutagenic call (Test System: AMES SALMONELLA TYPHIMURIUM, Strain/Indicator: TA102, Metabolic Activation: NONE, Method: STANDARD PLATE): active; positive
